Measured values as given in patent US10947252B2, “Inhibitors of KEAP1-Nrf2 protein-protein interaction” (Janssen Pharmaceutica NV, priority 2018, dated 2021).

How the values were obtained:
[1] = test system: Glo-Response ARE-luc2P HEK293 cell line; assay: ARE luciferase reporter cell-based assay; conditions: average of results obtained;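 further: luciferase signal tracks Nrf2 activation of the ARE once compounds disrupt KEAP1-Nrf2 binding, read with One-Glo reagent, DMSO serving as low control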
[2] = target: Kelch domain of human KEAP1 (321-624 aa) (Homo sapiens (Human), UniProt Q14145); assay: KEAP1 KELCH ThermoFluor binding assay; conditions: KEAP Kelch […], 1,8-ANS, pH 7.0, average of results obtained, read-out: Tf Kd;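 further: Ligand-induced melting temperature shift of E. coli-expressed KEAP1 Kelch protein, Kd estimated from concentration-response curves of ΔTm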
Sequence of Kelch domain of human KEAP1 (321-624 aa) (Q14145 321-624): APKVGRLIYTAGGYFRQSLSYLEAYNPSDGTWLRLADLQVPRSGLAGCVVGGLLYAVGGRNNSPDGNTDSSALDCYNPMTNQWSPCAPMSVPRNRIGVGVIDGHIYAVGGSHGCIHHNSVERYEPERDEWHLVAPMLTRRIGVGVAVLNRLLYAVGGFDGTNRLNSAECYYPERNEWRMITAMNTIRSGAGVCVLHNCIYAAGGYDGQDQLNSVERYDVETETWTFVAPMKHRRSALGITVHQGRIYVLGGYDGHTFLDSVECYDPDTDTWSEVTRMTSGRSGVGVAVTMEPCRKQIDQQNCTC

SMILES | EC50 ([1]; Homo sapiens, HEK293, 24 h) [nM] | Kd [2] [nM] | EC50 ([1]; 24 hours) [nM]
CCn1nnc2c(C)c([C@H](CC(=O)O)c3ccc(C)c(CN4CC5(CC5)Oc5ncccc5S4(=O)=O)n3)ccc21 (single isomer, unassigned) [Example 244, (*S)-3-(6-((1′,1′-Dioxidospiro[cyclopropane-1,4′-pyrido[2,3-b][1,4,5]oxathiazepin]-2′(3′H)-yl)methyl)-5-methylpyridin-2-yl)-3-(1-ethyl-4-methyl-1H-benzo[d][1,2,3]triazol-5-yl)propanoic Acid] | 35 | < 1 | 
Cc1ccc([C@@H](CC(=O)O)c2ccc3c(nnn3CC3CC3)c2C)cc1CN1CC2(CC2)N(C)c2ncccc2S1(=O)=O (single isomer, unassigned) [Example 79, (*R)-3-(1-(Cyclopropylmethyl)-4-methyl-1H-benzo[d][1,2,3]triazol-5-yl)-3-(4-methyl-3-((5′-methyl-1′,1′-dioxido-5′H-spiro[cyclopropane-1,4′-pyrido[2,3-f][1,2,5]thiadiazepin]-2′(3′H)-yl)methyl)phenyl)propanoic Acid] | 153 | 5.6 | 
Cc1ccc([C@H](CC(=O)O)c2ccn3c(C(F)F)nnc3c2C)cc1CN1CC2(CC2)Oc2ncc(C(N)=O)cc2S1(=O)=O (single isomer, unassigned) [Example 552, (*S)-3-(3-((8′-Carbamoyl-1′,1′-dioxidospiro[cyclopropane-1,4′-pyrido[2,3-b][1,4,5]oxathiazepin]-2′(3′H)-yl)methyl)-4-methylphenyl)-3-(3-(difluoromethyl)-8-methyl-[1,2,4]triazolo[4,3-a]pyridin-7-yl)propanoic Acid] | > 20000 | 150 | 
Cc1ccc([C@@H](c2ccn3c(C(F)(F)F)nnc3c2C)C(C)(C)C(=O)O)cc1CN1CC2(CCOCC2)Oc2nc(CCC(N)=O)ccc2S1(=O)=O (single isomer, unassigned) [Example 599, (*S)-3-(3-((7′-(3-amino-3-oxopropyl)-1′,1′-dioxido-2,3,5,6-tetrahydrospiro[pyran-4,4′-pyrido[2,3-b][1,4,5]oxathiazepin]-2′(3′H)-yl)methyl)-4-methylphenyl)-2,2-dimethyl-3-(8-methyl-3-(trifluoromethyl)-[1,2,4]triazolo[4,3-a]pyridine-7-yl)propanoic Acid] | 246 | < 1 | 
Cc1ccc([C@H](CC(=O)O)c2ccn3c(C(F)(F)F)nnc3c2C)cc1CN1C[C@@H]2CCCN2c2ccccc2S1(=O)=O (single isomer, unassigned) [Example 274, (*S)-3-(3-(((S)-5,5-Dioxido-7a,8,9,10-tetrahydrobenzo[f]pyrrolo[2,1-d][1,2,5]thiadiazepin-6(7H)-yl)methyl)-4-methylphenyl)-3-(8-methyl-3-(trifluoromethyl)-[1,2,4]triazolo[4,3-a]pyridin-7-yl)propanoic Acid] | 51.2 | 1.19 | 
Cc1cnc2c(c1)S(=O)(=O)N(Cc1cc(C(c3ccn4c(C5CC5)nnc4c3C)C(C)(C)C(=O)O)ccc1C)CC1(CC1)O2 (racemic) [Example 391, (R/S)-3-(3-Cyclopropyl-8-methyl-[1,2,4]triazolo[4,3-a]pyridin-7-yl)-2,2-dimethyl-3-(4-methyl-3-((8′-methyl-1′,1′-dioxidospiro[cyclopropane-1,4′-pyrido[2,3-b][1,4,5]oxathiazepin]-2′(3′H)-yl)methyl)phenyl)propanoic Acid] | 26.7 | < 1 | 
Cc1ccc([C@@H](c2ccn3c(C(F)(F)F)nnc3c2C)C(C)(C)C(=O)O)cc1CN1CC2(CCOCC2)Oc2nc(N[C@@H](C)CCO)ccc2S1(=O)=O (single isomer, unassigned) [Example 121, (*S)-3-(3-((7′-(((S)-4-Hydroxybutan-2-yl)amino)-1′,1′-dioxido-2,3,5,6-tetrahydrospiro[pyran-4,4′-pyrido[2,3-b][1,4,5]oxathiazepin]-2′(3′H)-yl)methyl)-4-methylphenyl)-2,2-dimethyl-3-(8-methyl-3-(trifluoromethyl)-[1,2,4[triazolo[4,3-a]pyridine-7-yl)propanoic Acid] | 157 | < 1 | 
Cc1cnc2c(c1)S(=O)(=O)N(Cc1cc([C@H](c3ccn4c(C(F)(F)F)nnc4c3C)C(C)(C)C(=O)O)ccc1C)C[C@@]1(CCOC1)O2 (single isomer, unassigned) [Example 388, (*R)-2,2-Dimethyl-3-(4-methyl-3-(((*R)-8′-methyl-1′,1′-dioxido-4,5-dihydro-2H-spiro[furan-3,4′-pyrido[2,3-b][1,4,5]oxathiazepin]-2′(3′H)-yl)methyl)phenyl)-3-(8-methyl-3-(trifluoromethyl)-[1,2,4]triazolo[4,3-a]pyridin-7-yl)propanoic Acid] | 1 | < 1 | 
Cc1ccc([C@@H](c2ccn3c(C(F)F)nnc3c2C)C(C)(C)C(=O)O)nc1CN1CC2(CCOCC2)Oc2nc(OCCN3CCCCC3)c(C)cc2S1(=O)=O (single isomer, unassigned) [Example 354, (*S)-3-(3-(Difluoromethyl)-8-methyl-[1,2,4]triazolo[4,3-a]pyridin-7-yl)-2,2-dimethyl-3-(5-methyl-6-((8′-methyl-1′,1′-dioxido-7′-(2-(piperidin-1-yl)ethoxy)-2,3,5,6-tetrahydrospiro[pyran-4,4′-pyrido[2,3-b][1,4,5]oxathiazepin]-2′(3′H)-yl)methyl)pyridin-2-yl)propanoic Acid] | 20.6 | < 1 | 
Cc1ccc([C@@H](c2ccn3c(C(F)(F)F)nnc3c2C)C(C)(C)C(=O)O)cc1CN1CC2(CC2)Oc2nc(OCCN3CC(F)C3)c(C)cc2S1(=O)=O (single isomer, unassigned) [Example 596, (*S)-3-(3-((7′-(2-(3-fluoroazetidin-1-yl)ethoxy)-8′-methyl-1′,1′-dioxidospiro[cyclopropane-1,4′-pyrido[2,3-b][1,4,5]oxathiazepin]-2′(3′H)-yl)methyl)-4-methylphenyl)-2,2-dimethyl-3-(8-methyl-3-(trifluoromethyl)-[1,2,4]triazolo[4,3-a]pyridine-7-yl)propanoic Acid] | 3.08 | < 1 | 
Cc1ccc(C(CC(=O)O)c2ccn3c(C(F)(F)F)nnc3c2C)cc1CN1CC(C)(C)Oc2ncccc2S1(=O)=O (stereo not shown) [Example 268, 3-(3-((4,4-Dimethyl-1,1-dioxido-3,4-dihydro-2H-pyrido[2,3-b][1,4,5]oxathiazepin-2-yl)methyl)-4-methylphenyl)-3-(8-methyl-3-(trifluoromethyl)-[1,2,4]triazolo[4,3-a]pyridin-7-yl)propanoic Acid] | 516 | < 1 | 
Cc1ccc([C@@H](c2ccn3c(C(F)(F)F)nnc3c2C)C(C)(C)C(=O)O)cc1CN1CC2(CCOCC2)Oc2nc(O[C@@H](C)CN3CCCCC3)c(C)cc2S1(=O)=O (single isomer, unassigned) [Example 602, (*S)-2,2-Dimethyl-3-(4-methyl-3-((8′-methyl-1′,1′-dioxido-7′-(((*S)-1-(piperidin-1-yl)propan-2-yl)oxy)-2,3,5,6-tetrahydrospiro[pyran-4,4′-pyrido[2,3-b][1,4,5]oxathiazepin]-2′,(3′H)-yl)methyl)phenyl)-3-(8-methyl-3-(trifluoromethyl)-[1,2,4]triazolo[4,3-a]pyridine-7-yl)propanoic Acid] | 2.72 | < 1 | 
Cc1ccc([C@@H](CC(=O)O)c2ccn3c(C(F)(F)F)nnc3c2C)nc1CN1C[C@@H]2CCCCN2c2ncc(C#N)cc2S1(=O)=O (single isomer, unassigned) [Example 34, (*S)-3-(6-(((*S)-3-Cyano-5,5-dioxido-7,7a,8,9,10,11-hexahydro-6H-dipyrido[2,1-d:2′,3′-f][1,2,5]thiadiazepin-6-yl)methyl)-5-methylpyridin-2-yl)-3-(8-methyl-3-(trifluoromethyl)-[1,2,4]triazolo[4,3-a]pyridin-7-yl)propanoic Acid] | 119 | < 1 | 
CC[C@@H]1CN(Cc2cc([C@H](CC(=O)O)c3cc(OC(F)F)c4c(c3)nnn4C)ccc2C)S(=O)(=O)c2cccnc2O1 (single isomer, unassigned) [Example 250, (*S)-3-(7-(Difluoromethoxy)-1-methyl-1H-benzo[d][1,2,3]triazol-5-yl)-3-(3-(((R)-4-ethyl-1,1-dioxido-3,4-dihydro-2H-pyrido[2,3-b][1,4,5]oxathiazepin-2-yl)methyl)-4-methylphenyl)propanoic Acid] | 32.8 | < 1 | 
Cc1ccc([C@H](CC(=O)O)c2ccn3c(C(F)(F)F)nnc3c2C)cc1CN1CC2(CC2)Oc2ncc(C#N)cc2S1(=O)=O (single isomer, unassigned) [Example 200, (*S)-3-(3-((8′-Cyano-1′,1′-dioxidospiro[cyclopropane-1,4′-pyrido[2,3-b][1,4,5]oxathiazepin]-2′(3′H)-yl)methyl)-4-methylphenyl)-3-(8-methyl-3-(trifluoromethyl)-[1,2,4]triazolo[4,3-a]pyridin-7-yl)propanoic Acid] | 61 | < 1 | 
CCn1nnc2c(C)c([C@@H](c3ccc(C)c(CN4CC5(CCOCC5)Oc5ncccc5S4(=O)=O)c3)C(C)(C)C(=O)O)ccc21 (single isomer, unassigned) [Example 16, (*R)-3-(3-((1′,1′-Dioxido-2,3,5,6-tetrahydrospiro[pyran-4,4′-pyrido[2,3-b][1,4,5]oxathiazepin]-2′(3′H)-yl)methyl)-4-methylphenyl)-3-(1-ethyl-4-methyl-1H-benzo[d][1,2,3]triazol-5-yl)-2,2-dimethylpropanoic Acid] | 233 | 838 | 
Cc1ccc([C@H](CC(=O)O)c2ccc3c(nnn3C)c2C(F)F)cc1CN1CC2CCCN2c2ncccc2S1(=O)=O (single isomer, unassigned) [Example 73, (*R) 3-(4-(Difluoromethyl-1-methyl-1H-benzo[d][1,2,3]triazol-5-yl)-3-(3-(((R-5,5-dioxido-7a,8,9,10-tetrahydropyridi[2,3-f]pyrrolo[2,1-d][1,2,5]thiadiazepin-6(7H)-yl)methyl)-4-methylphenyl)propanoic Acid] |  | 3 | 600
